Publication PMC9004346, “Development of small cyclic peptides targeting the CK2α/β interface” (Chemical Communications (Cambridge, England), 2022)
Like-named read-outs stand apart in the source and are kept apart here. *1 amine or outer side, *2 acyl side, *3 side chain or, on linkers, in order; H or OH if unused. Where a SMILES comes first, the peptide text is derived from it. Bridges are numbered along the chain shown (N, C = ends). [ ]: non-standard residue; d: D form. Trp(2-yl) = O=C([C@H](Cc1c([*:3])[nH]c2ccccc12)N[*:1])[*:2]; hCys = N[C@@H](CCS)C(=O)O; Ahx = NCCCCCC(=O)O

Experiments:
[1] = Serum stability test; type: in vitro ADME; conditions: 20% human serum in PBS, 37 °C, monitored over 24 h
Experimental: 1.6.3 Serum stability test
500 μL of PBS buffer supplemented with 20% (v/v) of human serum was allocated into an Eppendorf tube and temperature kept at 37 °C for 15 minutes before commencing the experiment. 5 µL of the peptide from 10 mM stock solution in DMSO was added. Caffeine was added as an internal standard (10 μL of a 15 mg/mL solution in MQ water). At specific intervals, 50 µL of the reaction mixture was taken and quenched with 100 µL of a 1:1 mixture of 96% Ethanol:DMSO. The suspension was spun at 13400 g for 10 minutes. 100 μL of the supernatant was analysed using C-18 HPLC with an eluting gradient 5-95% MeCN (0.05% TFA) in water (0.05% TFA) over 15 minutes (90 μL injection volume).
Percentage of intact starting peptide was monitored over 24 h (calculated as the ratio of the area of […]
the peak corresponding to the intact peptide to the area of the peak of caffeine). The experiment was […]
1 M. M. Wiedmann, Y. S. Tan, Y. Wu, S. Aibara, W. Xu, H. F. Sore, C. S. Verma, L. Itzhaki, M.
Stewart, J. D. Brenton and D. R. Spring, Angew. Chemie Int. Ed., 2017, 56, 524–529.
3 G. T. Potter, G. C. Jayson, G. J. Miller and J. M. Gardiner, J. Org. Chem., 2016, 81, 3443–3446.
4 J. Iegre, P. Brear, D. J. Baker, Y. S. Tan, E. L. Atkinson, H. F. Sore, D. H. O’ Donovan, C. S. Verma,
7 C. Puig Duran, F. Albericio Palomera, M. Gongora Benitez, M. Paradis Bas, L. Miret Casals, I. […]

[2] = MTT cell viability assay in HeLa cells; type: cell-based; conditions: human
Experimental: (§1) HeLa cells were maintained in 5% CO2 in DMEM supplemented with 10% FBS, 2 mM L-glutamine, 100 U/mL penicillin and […] streptomycin, in an atmosphere containing 5% CO2.
(§2) Cells were regularly passed and used for experiments within one month after thawing (10-15 […]
(§3) 1.6.2 Cell viability assay
(§4) Cell viability was assayed by 3-(4,5-dimethylthiazol-2-yl)-2,5-diphenyltetrazolium bromide (MTT) colorimetric assay. HeLa cells were plated on 96-well plates (20,000 cells per well in 100 μL). After 24 h, cells were treated with different concentrations of test compounds or vehicle alone (DMSO). One hour before the end of the incubations, 10 μL of MTT solution (5 mg/mL in PBS) were added to each well. Formazan crystals (proportional to the number of viable cells) were then dissolved by the addition of 20 μL/well of a pH 4.7 solution containing 20% (w:v) SDS, 50% (v:v) N,N-dimethylformamide, 2% (v:v) acetic acid, and 25 mM HCl, and quantified by recording the absorbance at 570 nm using an Infinite M200 PRO plate reader (TECAN, Life Sciences). […]

[3] = system: HeLa cells; assay: MTT cell viability assay in HeLa cells; type: cell-based; conditions: HeLa cells, MTT, 48 h
Experimental: as §1, §2, §3, §4

**Q.** Which “Serum stability (in words)” value [1] does the source give for `CC(=O)N[C@@H](CCS)C(=O)N[C@@H](CCCNC(=N)N)C(=O)N[C@@H](CC(C)C)C(=O)N[C@@H](Cc1ccc(O)cc1)C(=O)NCC(=O)N[C@@H](Cc1ccccc1)C(=O)N[C@@H](CCCCN)C(=O)N[C@@H](Cc1c[nH]c2ccccc12)C(N)=O` [Peptide P8] (Ac-[hCys]RLYGFKW-NH2) here?
**A.** fully had degraded after 1 h

**Q.** Which results are given for `CC(C)C[C@@H]1NC(=O)[C@H](CCCNC(=N)N)NC(=O)[C@@H](NC(=O)CCCCCNC(=O)CCCCCNC(=O)[C@H](CCCNC(=N)N)NC(=O)[C@H](CCCNC(=N)N)NC(=O)[C@@H](N)CCCNC(=N)N)CCSc2[nH]c3ccccc3c2C[C@@H](C(N)=O)NC(=O)[C@H](CCCCN)NC(=O)[C@H](Cc2ccccc2)NC(=O)CNC(=O)[C@H](Cc2ccc(O)cc2)NC1=O` [Peptide R3-P8C9] (H-RRR[Ahx][Ahx][hCys]RLYGFK[Trp(2-yl)]-NH2; thioether 6-13)?
**A.** viability at 48 h, 50 µM [2]: 66 ± 5%; viability at 48 h, 100 µM [2]: 54 ± 4%; Effect on cell viability (in words) [3]: large reduction in cell viability

**Q.** For `CC(C)C[C@@H]1NC(=O)[C@H](CCCNC(=N)N)NC(=O)[C@@H](NC(=O)CCCCCNC(=O)CCCCCNC(=O)[C@H](CCC(N)=O)NC(=O)[C@@H]2CCCN2C(=O)[C@@H]2CCCN2C(=O)[C@H](CCCNC(=N)N)NC(=O)[C@H](CCCNC(=N)N)NC(=O)[C@H](CCCNC(=N)N)NC(=O)[C@H](CCC(N)=O)NC(=O)[C@H](CCCNC(=N)N)NC(=O)[C@H](CCCNC(=N)N)NC(=O)[C@H](CCCCN)NC(=O)[C@H](CCCCN)NC(=O)[C@H](CCCNC(=N)N)NC(=O)CN)CCSc2[nH]c3ccccc3c2C[C@@H](C(N)=O)NC(=O)[C@H](CCCCN)NC(=O)[C@H](Cc2ccccc2)NC(=O)CNC(=O)[C@H](Cc2ccc(O)cc2)NC1=O` [TAT-P8C9] (H-GRKKRRQRRRPPQ[Ahx][Ahx][hCys]RLYGFK[Trp(2-yl)]-NH2; thioether 16-23), which viability at 48 h, 50 µM ([2]; HeLa cells, 48 h, 50 μM compound, ±standard deviation, read-out: Cell viability (%) 50 μM compound) is on record?
**A.** 66 ± 4%

**Q.** And the viability at 48 h, 100 µM ([2]; HeLa cells, 48 h, 100 μM compound, ±standard deviation, read-out: Cell viability (%) 100 μM compound)?
**A.** 26 ± 7%

**Q.** What about the “Effect on cell viability (in words)” value [3] of the same compound?
**A.** large reduction in cell viability
